Patent publication US20240299492A1, “COMBINATION THERAPIES WITH SIRP ALPHA-BASED CHIMERIC PROTEINS” (Shattuck Labs, Inc., priority 2021, published 2024)

Tests used:
[1] = test system: CT26 tumor cells; experiment: In vivo anti-tumor efficacy, CT26 colorectal carcinoma mouse allograft model; design: species or system BALB/C mice
Method: The efficacy of the SIRPα-Fc-CD40L chimeric protein was evaluated in combination with a spindle toxin. Towards that, the ability of paclitaxel and chimeric proteins to target and reduce tumor volume in vivo was determined. Briefly, BALB/C mice were inoculated with 500,000 CT26 tumor cells. When tumor volumes were approximately 50 to 60 mm^3 (day 0), the mice were randomly distributed in the following treatment groups: (1) vehicle only control, (2) 300 μg of the SIRPα-Fc-CD40L chimeric protein alone, (3) 24 mg/kg paclitaxel alone, and (4) a combination 300 μg of the SIRPα-Fc-CD40L chimeric protein and 24 mg/kg paclitaxel. The mice were dosed on days 0, 3 and 6 via intraperitoneal injections. Tumors were measured with electronic calipers on day 14 and plotted using the GraphPad Prism software.
The efficacy of the SIRPα-Fc-CD40L chimeric protein was evaluated in combination with an antimetabolite or. Towards that, the ability of 5-fluorouracil and chimeric proteins to target and reduce tumor volume in vivo was determined. Briefly, BALB/C mice were inoculated with 500,000 CT26 tumor cells. When tumor volumes were approximately 50 to 60 mm^3 (day 0), the mice were randomly distributed in the following treatment groups: (1) vehicle only control, (2) 300 μg of the SIRPα-Fc-CD40L chimeric protein alone, (3) 20 mg/kg 5-fluorouracil alone, and (4) a combination 300 μg of the SIRPα-Fc-CD40L chimeric protein and 20 mg/kg 5-fluorouracil. The mice were dosed via intraperitoneal injections as follows: the SIRPα-Fc-CD40L chimeric protein was administered on days 0, 3 and 6; and 5-fluorouracil was administered on days 0, 2 and 4. Tumors were measured with electronic calipers on day 11 and plotted using the GraphPad Prism software.
The efficacy of the SIRPα-Fc-CD40L chimeric protein was evaluated in combination with a topoisomerase I inhibitor. Towards that, the ability of irinotecan and chimeric proteins to target and reduce tumor volume in vivo was determined. Briefly, BALB/C mice were inoculated with 500,000 CT26 tumor cells. When tumor volumes were approximately 50 to 60 mm^3 (day 0), the mice were randomly distributed in the following treatment groups: (1) vehicle only control, (2) 300 μg of the SIRPα-Fc-CD40L chimeric protein alone, (3) 25 mg/kg irinotecan alone, and (4) a combination 300 μg of the SIRPα-Fc-CD40L chimeric protein and 25 mg/kg irinotecan. The mice were dosed on days 0 and 2 via intraperitoneal injections. Tumors were measured with electronic calipers on day 4 and plotted using the GraphPad Prism software.
The efficacy of the SIRPα-Fc-CD40L chimeric protein was evaluated in combination with an anthracycline. Towards that, the ability of doxorubicin and chimeric proteins to target and reduce tumor volume in vivo was determined. Briefly, BALB/C mice were inoculated with 500,000 CT26 tumor cells. When tumor volumes were approximately 50 to 60 mm^3 (day 0), the mice were randomly distributed in the following treatment groups: (1) vehicle only control, (2) 300 μg of the SIRPα-Fc-CD40L chimeric protein alone, (3) 8 mg/kg doxorubicin alone, and (4) a combination 300 μg of the SIRPα-Fc-CD40L chimeric protein and 8 mg/kg doxorubicin. The mice were dosed with the SIRPα-Fc-CD40L chimeric protein on days 0, 3 and 6 via intraperitoneal injections, and with doxorubicin thrice through the tail vein. Tumors were measured with electronic calipers on day 7 and plotted using the GraphPad Prism software.
The efficacy of the SIRPα-Fc-CD40L chimeric protein was evaluated in combination with a platinum compound. Towards that, the ability of cisplatin and chimeric proteins to target and reduce tumor volume in vivo was determined. Briefly, BALB/C mice were inoculated with 500,000 CT26 tumor cells. […]

[2] = test system: MM1R human multiple myeloma (MM) cells; experiment: Phagocytosis of MM1R cells by human macrophages (flow cytometry): bortezomib and/or SIRPα-Fc-CD40L; format: cell-based; conditions: 1 pM bortezomib overnight and/or SIRPα-Fc-CD40L for 4 hours; combination p<0.0001 vs control; FIG. 3A
Method: (§1) Briefly, the MM1R human multiple myeloma (MM) cells were labeled with a green fluorescent tracker and treated with vehicle alone control or 1 pM bortezomib overnight. The following day, the tumor cells were washed in PBS and then co-cultured with human macrophages with or without the SIRPα-Fc-CD40L chimeric protein for 4 hours at 37° C. in the presence of 5% CO2. After this incubation, the cells were harvested and treated with an anti-CD11b antibody (a macrophage marker) and were analyzed using flow cytometry. Positive phagocytosis was determined by the overlap in signals of tumor (the green fluorescent tracker) and macrophage (anti-CD11b antibody staining). A phagocytosis index was calculated by setting the maximum phagocytosis value to 1, and then normalizing all other replicates accordingly. The phagocytosis index was plotted for the indicated treatments.

[3] = test system: ARD1 human multiple myeloma (MM) cells; experiment: Phagocytosis of ARD1 cells by human macrophages (flow cytometry): bortezomib and/or SIRPα-Fc-CD40L; format: cell-based; conditions: 1 pM bortezomib overnight and/or SIRPα-Fc-CD40L for 4 hours; combination p<0.0001 vs control; FIG. 3B
Method: as §1, with “In another experiment,” for “Briefly,”, “ARD1” for “MM1R”

[4] = test system: KMS12B multiple myeloma cells; experiment: Phagocytosis of KMS12B cells by M1 macrophages with activated T cells (flow cytometry): pomalidomide with or without SIRPα-Fc-CD40L; format: cell-based, human; conditions: 10 μM pomalidomide, CD3/CD28 activated T cells, M1 polarized macrophages, 4 hours; FIG. 7
Method: Briefly, CD14+ monocytes were isolated from human donor PBMCs and cultured with m-CSF (100 ng/ml) for 6 days. On day 6, IFNγ (100 ng/ml) and LPS (10 ng/ml) were added to the cells for an additional 24 hours, generating M1 polarized macrophages. On day 5 of the macrophage differentiation, another vial of PBMCs from the same human donor was thawed, and CD3 T cells were isolated using a magnetic bead isolation kit. These T cells were activated for 2 days with CD3/CD28 T cell magnetic activation beads. On day 7 when both the macrophages and T cells were activated and ready, they were combined with KMS12B multiple myeloma cells, which were labeled with a green fluorescent tracker, with 10 μM pomalidomide and with or without 50 μg/ml of the SIPRα-Fc-CD40L chimeric protein. KMS12B cells incubated with the macrophages and 10 μM pomalidomide, without T cells, were used as a negative control. This coculture was incubated for 4 hours at 37° C., 5% CO2. After this incubation, the cells were harvested and treated with an anti-CD11b antibody (a macrophage marker) and were analyzed using flow cytometry. Positive phagocytosis was determined by the overlap in signals of tumor (the green fluorescent tracker) and macrophage (anti-CD11b antibody staining). A phagocytosis index was calculated by setting the maximum phagocytosis value to 1, and then normalizing all other replicates accordingly. […]

[5] = test system: ARD1 human multiple myeloma (MM) cells; experiment: Phagocytosis of ARD1 cells by human macrophages (IncuCyte phRodo Red imaging): daratumumab and/or SIRPα-Fc-CD40L; format: cell-based; conditions: 1 μg/ml daratumumab and/or 10 μg/ml SIRPα-Fc-CD40L, 2 hours, combination p<0.0001 vs vehicle, FIG. 6
Method: Briefly, the ARD1 human multiple myeloma (MM) cells were labeled the IncuCyte phRodo Red cell labeling kit and co-cultured with human macrophages and treated with (1) vehicle alone control, (2) 10 μg/ml of the SIRPα-Fc-CD40L chimeric protein, (3) 1 μg/ml of daratumumab (an antibody-dependent cellular phagocytosis (ADCP)-proficient anti-CD38 antibody), or (4) 1 μg/ml of an daratumumab and 10 μg/ml of the SIRPα-Fc-CD40L chimeric protein and incubated at 37° C. in the presence of 5% CO2 for 2 hours. Cultures were imaged using the IncuCyte time-lapse microscopy system, and positive phagocytosis was determined by an increase in red fluorescent intensity which occurs when the phRodo Red labeled tumor cell is internalized into the acidic macrophage phagosome. A phagocytosis index was calculated by setting the maximum phagocytosis value to 1, and then normalizing all other replicates accordingly. The phagocytosis index was plotted for the indicated treatments.

[6] = test system: ARD1 human multiple myeloma cells; experiment: Phagocytosis of ARD1 cells by human macrophages (flow cytometry): elotuzumab and/or SIRPα-Fc-CD40L; format: cell-based; conditions: 1 μg/ml elotuzumab and/or SIRPα-Fc-CD40L (10 μg/ml alone; 10 pg/ml in the combination), 4 hours; combination p<0.05 vs vehicle; FIG. 8
Method: Briefly, the ARD1 human multiple myeloma cells were labeled with a green fluorescent tracker and co-cultured with human macrophages and treated with (1) vehicle alone control, (2) 10 μg/ml of the SIRPα-Fc-CD40L chimeric protein, (3) 1 μg/ml of elotuzumab (an antibody-dependent cellular phagocytosis (ADCP)-proficient anti-SLAMF7 antibody), or (4) 1 μg/ml of elotuzumab and 10 pg/ml of the SIRPα-Fc-CD40L chimeric protein and incubated at 37° C. in the presence of 5% CO2 for 4 hours. After this incubation, the cells were harvested and treated with an anti-CD11b antibody (a macrophage marker) and were analyzed using flow cytometry. Positive phagocytosis was determined by the overlap in signals of tumor (the green fluorescent tracker) and macrophage (anti-CD11b antibody staining). A phagocytosis index was calculated by setting the maximum phagocytosis value to 1, and then normalizing all other replicates accordingly. The phagocytosis index was plotted for the indicated treatments.

O=c1[nH]cc(F)c(=O)[nH]1 [5-fluorouracil]
tumor size ([1]; day 11, 300 μg SIRPα-Fc-CD40L (days 0, 3, 6) and/or 20 mg/kg 5-fluorouracil (days 0, 2, 4), intraperitoneal, combination vs vehicle p<0.01, vs 5-fluorouracil alone p<0.05, FIG. 10B): reduction in tumor size

CC(C)C[C@H](NC(=O)[C@H](Cc1ccccc1)NC(=O)c1cnccn1)B(O)O [bortezomib]
level of phagocytosis (phagocytosis index) compared to the control MM1R cells [2]: increased level of phagocytosis
level of phagocytosis (phagocytosis index) compared to the control ARD1 cells [3]: increased level of phagocytosis

N.N.[Cl][Pt][Cl] [cisplatin]
tumor size ([1]; day 4, 300 μg SIRPα-Fc-CD40L (days 0 and 3) and/or 200 μg cisplatin (day 0), intraperitoneal, FIG. 10E): reduction in tumor size

COc1cccc2c1C(=O)c1c(O)c3c(c(O)c1C2=O)C[C@@](O)(C(=O)CO)C[C@@H]3O[C@H]1C[C@H](N)[C@H](O)[C@H](C)O1 [doxorubicin]
tumor size ([1]; day 7, 300 μg SIRPα-Fc-CD40L (intraperitoneal, days 0, 3, 6) and/or 8 mg/kg doxorubicin (thrice, tail vein), FIG. 10D): reduction in tumor size

CCc1c2c(nc3ccc(OC(=O)N4CCC(N5CCCCC5)CC4)cc13)-c1cc3c(c(=O)n1C2)COC(=O)[C@]3(O)CC [irinotecan]
tumor size ([1]; day 4, 300 μg SIRPα-Fc-CD40L and/or 25 mg/kg irinotecan, intraperitoneal, days 0 and 2, FIG. 10C): reduction in tumor size

O=C1[O][Pt]2([NH][C@@H]3CCCC[C@H]3[NH]2)[O]C1=O [oxaliplatin]
tumor size ([1]; day 4, 300 μg SIRPα-Fc-CD40L (days 0 and 3) and/or 10 mg/kg oxaliplatin (day 0), intraperitoneal, FIG. 10F): reduction in tumor size

CC(=O)O[C@H]1C(=O)[C@@]2(C)[C@H]([C@H](OC(=O)c3ccccc3)[C@]3(O)C[C@H](OC(=O)[C@H](O)[C@@H](NC(=O)c4ccccc4)c4ccccc4)C(C)=C1C3(C)C)[C@]1(OC(C)=O)CO[C@@H]1C[C@@H]2O [paclitaxel]
tumor size ([1]; day 14, 300 μg SIRPα-Fc-CD40L and/or 24 mg/kg paclitaxel, intraperitoneal, days 0, 3 and 6, FIG. 10A): reduction in tumor size

Nc1cccc2c1C(=O)N(C1CCC(=O)NC1=O)C2=O (centres unmarked) [pomalidomide]
phagocytosis of KMS12B cells incubated with T cells, macrophages and pomalidomide compared to incubation without T cells (negative control) [4]: increased phagocytosis

daratumumab: an antibody-dependent cellular phagocytosis (ADCP)-proficient anti-CD38 antibody
level of phagocytosis (phagocytosis index) compared to the vehicle only-treated ARD1 cells [5]: increased level of phagocytosis

elotuzumab: an antibody-dependent cellular phagocytosis (ADCP)-proficient anti-SLAMF7 antibody
level of phagocytosis (phagocytosis index) compared to the vehicle only-treated ARD1 cells [6]: increased level of phagocytosis
